# Data published in PubChem BioAssay (NCI).
#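 Cells were grown in 96-well plates and exposed to each compound for 48 hours at five concentrations; endpoints were interpolated linearly between bracketing concentrations, or set to the highest concentration if not reached. TGI: concentration producing complete growth inhibition.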
# Tests used:
# Assay in all cases: NCI anticancer screen, dose series, 48 h
# [1] = test system: LXFL 529 NSCLC
# [2] = test system: DMS 114 small cell lung
# [3] = test system: M19-MEL melanoma
# [4] = test system: BT-549 breast
# [5] = test system: PC-3 prostate
# [6] = test system: DLD-1 colon
# [7] = test system: MDA-N
# [8] = test system: HOP-18 NSCLC
# [9] = test system: DMS 273 small cell lung
SMILES,TGI [1],TGI [2],TGI [3],TGI [4],TGI [5],TGI [6],TGI [7],TGI [8],TGI [9]
CCCCCCCCC(=O)NCCN(CCN)C(=O)CCCCCCCC,7.89 µM,10.1 µM,10.6 µM,22.8 µM,25 µM,10.4 µM,11.6 µM,31 µM,6.65 µM
N#CC12CC3(CCC1CCC1(C2)OCCO1)OCCO3 (stereo not drawn),> 100 µM,> 100 µM,> 100 µM,,,> 100 µM,,> 100 µM,> 100 µM
CC(=O)Nc1ccccc1S(=O)c1ccccc1 (stereo not drawn),> 100 µM,> 100 µM,> 100 µM,,,> 100 µM,,> 100 µM,> 100 µM
CC1=C(C(=O)NCc2ccccc2)C(c2ccccc2O)C(C(=O)NCc2ccccc2)=C(C)N1,28.7 µM,35.7 µM,35.7 µM,,,36 µM,,60.1 µM,31.2 µM
CCCCCCC(=O)CC(=O)C(=O)Nc1ccccc1C,> 100 µM,> 100 µM,> 100 µM,,,> 100 µM,,> 100 µM,> 100 µM
C/C(=N\NS(=O)(=O)c1ccccc1)c1ccc[n+]([O-])n1,> 100 µM,> 100 µM,> 100 µM,,,> 100 µM,,> 100 µM,> 100 µM
O=S1Cc2ccccc2CSS1 (stereo not drawn),27.2 µM,34.6 µM,44.9 µM,,,41.1 µM,,89.1 µM,24.1 µM
COc1c(OC2OC(CO)C(O)C(O)C2O)cc2c(c1OC)-c1ccc(OC)c(=O)cc1[C@@H](NC(C)=O)CC2 (stereo partly drawn),> 100 µM,> 97 µM,> 100 µM,,,> 100 µM,,> 100 µM,> 100 µM
NNC(=O)N/N=C1/C(=O)N(c2ccc(Cl)c(Cl)c2)C(=O)C(=O)C1c1nc2ccccc2o1 (stereo not drawn),> 100 µM,> 100 µM,> 100 µM,,,> 100 µM,,> 100 µM,> 100 µM
C=C1CC(CC(=O)C(C)CC2CC(=C)C(=O)O2)OC1=O (stereo not drawn),27.8 µM,39 µM,30.3 µM,,,30.4 µM,,47.3 µM,57.5 µM
